Starred links: 1 amine or outer side, 2 acyl side, 3 side chain; linkers in the order of their positions; H or OH if unused. Positions of bridges follow the written chain, without caps; N, C: chain ends. Non-standard residues stand in square brackets, D forms with d. Residues, ends and D or L forms follow the SMILES beside them. Chains are numbered I, II in the order given. Actinocin(9to1) = Cc1c2oc3c(C)ccc(C(=O)[*:1])c3nc-2c(C(=O)[*:2])c(N)c1=O; NMeV = CN[C@H](C(=O)O)C(C)C; Sar = CNCC(=O)O
Assays:
Homo sapiens [1] = species: Homo sapiens; assay: Liver toxicity in human assessed as induction of drug-induced liver injury by measuring verified drug-induced liver injury concern status
Homo sapiens [2] = species: Homo sapiens; assay: Liver toxicity in human assessed as induction of drug-induced liver injury by measuring severity class index
For DILI severity class in this document: key of the grades not given here.

Row | Molecule | DILI_Concern (Homo sapiens [1]) | DILI_severity_class (Homo sapiens [2])
1 | O=C1c2cccc3c2[C@H](CCC3)CN1[C@@H]1CN2CCC1CC2 [PALONOSETRON] | Ambiguous-Dili-Concern | 4
2 | NC(=O)CC[C@@H]1NC(=O)[C@H](Cc2ccccc2)NC(=O)[C@H](Cc2ccc(O)cc2)NC(=O)[C@@H](N)CSSC[C@@H](C(=O)N2CCC[C@H]2C(=O)N[C@@H](CCCN=C(N)N)C(=O)NCC(N)=O)NC(=O)[C@H](CC(N)=O)NC1=O [VASOPRESSIN] | No-Dili-Concern | 0
3 | CCCC(=O)Nc1ccc(OCC(O)CNC(C)C)c(C(C)=O)c1 (stereo not drawn) [ACEBUTOLOL] | Less-Dili-Concern | 3
4 | CC12CC3CC(C)(C1)CC(N)(C3)C2 [MEMANTINE] | Less-Dili-Concern | 7
5 | COC(=O)C1=C(C)NC(C)=C(C(=O)OCC(C)C)C1c1ccccc1[N+](=O)[O-] (stereo not drawn) [NISOLDIPINE] | Ambiguous-Dili-Concern | 3
6 | DALTEPARIN SODIUM | Less-Dili-Concern | 3
7 | COc1ccc2c(c1)[C@]13CCCC[C@@H]1[C@H](C2)N(C)CC3 [DEXTROMETHORPHAN] | No-Dili-Concern | 0
8 | C[C@H](Cn1cnc2c(N)ncnc21)OCP(=O)(O)O [TENOFOVIR ANHYDROUS] | Less-Dili-Concern | 3
9 | CNCCCN1c2ccccc2CCc2ccccc21 [DESIPRAMINE] | Ambiguous-Dili-Concern | 3
10 | CCC1=C(C)CN(C(=O)NCCc2ccc(S(=O)(=O)NC(=O)N[C@H]3CC[C@H](C)CC3)cc2)C1=O [GLIMEPIRIDE] | Less-Dili-Concern | 7
11 | CC(=O)N[C@@H]1[C@@H](O[C@@H]2O[C@@H](C(=O)O)[C@@H](O)[C@H](O)[C@H]2O)[C@@H](OS(=O)(=O)O)[C@@H](CO)O[C@H]1O | Most-Dili-Concern | 8
12 | Cc1cccc(CN2CCN(C(c3ccccc3)c3ccc(Cl)cc3)CC2)c1 (stereo not drawn) [MECLIZINE] | No-Dili-Concern | 0
13 | Clc1ccc2nsnc2c1NC1=NCCN1 [TIZANIDINE] | Most-Dili-Concern | 8
14 | O=[As][As+](=O)[O-] (stereo not drawn) [ARSENIC TRIOXIDE] | Ambiguous-Dili-Concern | 3
15 | CC[C@]1(O)C[C@@H]2CN(CCc3c([nH]c4ccccc34)[C@@](C(=O)OC)(c3cc4c(cc3OC)N(C)[C@H]3[C@@](O)(C(=O)OC)[C@H](OC(C)=O)[C@]5(CC)C=CCN6CC[C@]43[C@@H]65)C2)C1 [VINBLASTINE] | No-Dili-Concern | 0
16 | O=C(O)CCCCCCNC1c2ccccc2CCc2ccccc21 [AMINEPTINE] | Most-Dili-Concern | 8
17 | CCc1oc2ccccc2c1C(=O)c1cc(Br)c(O)c(Br)c1 [BENZBROMARONE] | Most-Dili-Concern | 8
18 | Nc1cc(N2CCCCC2)nc(N)[n+]1[O-] [MINOXIDIL] | No-Dili-Concern | 0
19 | NCCc1ccc(O)cc1 [TYRAMINE] | No-Dili-Concern | 0
20 | Cc1nnc(SCC2=C(C(=O)O)N3C(=O)[C@@H](NC(=O)Cn4cnnn4)[C@H]3SC2)s1 [CEFAZOLIN] | Less-Dili-Concern | 3
21 | CN1CC(=O)N2[C@H](c3ccc4c(c3)OCO4)c3[nH]c4ccccc4c3C[C@@H]2C1=O | Ambiguous-Dili-Concern | 3
22 | CC(C(=O)O)c1cccc(Oc2ccccc2)c1 (stereo not drawn) [FENOPROFEN] | Most-Dili-Concern | 8
23 | CN[C@H]1CC[C@@H](c2ccc(Cl)c(Cl)c2)c2ccccc21 [SERTRALINE] | Less-Dili-Concern | 3
24 | CC(C(=O)O)c1ccc(N2CC=CC2)c(Cl)c1 (stereo not drawn) [PIRPROFEN] | Most-Dili-Concern | 8
25 | CC(C)Cc1ccc(CC(=O)O)cc1 [IBUFENAC] | Most-Dili-Concern | 8

Row | Molecule | DILI_Concern (Homo sapiens [1]) | DILI_severity_class (Homo sapiens [2])
26 | NS(=O)(=O)Cc1noc2ccccc12 [ZONISAMIDE] | Less-Dili-Concern | 2
27 | CN(C)C(=O)Oc1ccc[n+](C)c1 [PYRIDOSTIGMINE] | No-Dili-Concern | 0
28 | C[C@]12CC[C@@H]3c4ccc(OC(=O)N(CCCl)CCCl)cc4CC[C@H]3[C@@H]1CC[C@@H]2O [ESTRAMUSTINE] | Most-Dili-Concern | 4
29 | Nc1nc(NC2CC2)c2ncn([C@H]3C=C[C@@H](CO)C3)c2n1 [ABACAVIR] | Most-Dili-Concern | 8
30 | CC(C)NCC(O)COc1ccc(COCCOC(C)C)cc1 (stereo not drawn) [BISOPROLOL] | Ambiguous-Dili-Concern | 3
31 | CNC[C@H](O)c1ccc(O)c(O)c1 [EPINEPHRINE] | No-Dili-Concern | 0
32 | CO[C@H]1/C=C/O[C@@]2(C)Oc3c(C)c(O)c4c(O)c(c(/C=N/N5CCN(C6CCCC6)CC5)c(O)c4c3C2=O)NC(=O)/C(C)=C\C=C\[C@H](C)[C@H](O)[C@@H](C)[C@@H](O)[C@@H](C)[C@H](OC(C)=O)[C@@H]1C [RIFAPENTINE] | Ambiguous-Dili-Concern | 4
33 | Cc1cn([C@H]2C=C[C@@H](CO)O2)c(=O)[nH]c1=O [STAVUDINE] | Most-Dili-Concern | 8
34 | CCCCNc1ccc(C(=O)OCCOCCOCCOCCOCCOCCOCCOCCOCCOC)cc1 [BENZONATATE] | Less-Dili-Concern | 0
35 | CCn1cc(C(=O)O)c(=O)c2cc(F)c(N3CCNCC3)cc21 [NORFLOXACIN] | Less-Dili-Concern | 3
36 | CC(C)Nc1ncccn1 [ISAXONINE] | Most-Dili-Concern | 8
37 | CCCCCCCCCC(=O)N[C@@H](Cc1c[nH]c2ccccc12)C(=O)N[C@H](CC(N)=O)C(=O)N[C@@H](CC(=O)O)C(=O)N[C@@H]1C(=O)NCC(=O)N[C@@H](CCCN)C(=O)N[C@@H](CC(=O)O)C(=O)N[C@H](C)C(=O)N[C@@H](CC(=O)O)C(=O)NCC(=O)N[C@H](CO)C(=O)N[C@@H]([C@H](C)CC(=O)O)C(=O)N[C@@H](CC(=O)c2ccccc2N)C(=O)O[C@@H]1C [DAPTOMYCIN] | Less-Dili-Concern | 5
38 | O=C1NC(=O)C(c2ccccc2)(c2ccccc2)N1 [PHENYTOIN] | Most-Dili-Concern | 8
39 | Cc1ccccc1C(=O)Nc1ccc(C(=O)N2CCCC(O)c3cc(Cl)ccc32)c(C)c1 (stereo not drawn) [TOLVAPTAN] | Most-Dili-Concern | 8
40 | CN(C)CCc1c[nH]c2ccc(C[C@H]3COC(=O)N3)cc12 [ZOLMITRIPTAN] | Ambiguous-Dili-Concern | 3
41 | CN(C)CCCN1c2ccccc2CCc2ccc(Cl)cc21 [CLOMIPRAMINE] | Most-Dili-Concern | 8
42 | Nc1ccn([C@@H]2O[C@H](CO)[C@@H](O)[C@@H]2O)c(=O)n1 [CYTARABINE] | Most-Dili-Concern | 3
43 | COc1ccc(C(CN(C)C)C2(O)CCCCC2)cc1 (stereo not drawn) [VENLAFAXINE] | Less-Dili-Concern | 7
44 | NYSTATIN | No-Dili-Concern | 0
45 | CC(COc1ccccc1)N(CCCl)Cc1ccccc1 (stereo not drawn) [PHENOXYBENZAMINE] | No-Dili-Concern | 0
46 | C[C@@H](Cc1ccccc1)N(C)Cc1ccccc1 [BENZPHETAMINE] | No-Dili-Concern | 0
47 | C[C@@H]1[C@H](O)[C@@H](C)/C=C/C=C/C=C/C=C/C=C/C=C/C=C/[C@H](O[C@@H]2O[C@H](C)[C@@H](O)[C@H](N)[C@@H]2O)C[C@@H]2O[C@](O)(C[C@@H](O)C[C@@H](O)[C@H](O)CC[C@@H](O)C[C@@H](O)CC(=O)O[C@H]1C)C[C@H](O)[C@H]2C(=O)O [AMPHOTERICIN B] | Less-Dili-Concern | 3
48 | Cc1c2oc3c(C)ccc(C(=O)N[C@@H]4C(=O)N[C@H](C(C)C)C(=O)N5CCC[C@H]5C(=O)N(C)CC(=O)N(C)[C@@H](C(C)C)C(=O)O[C@@H]4C)c3nc-2c(C(=O)N[C@@H]2C(=O)N[C@H](C(C)C)C(=O)N3CCC[C@H]3C(=O)N(C)CC(=O)N(C)[C@@H](C(C)C)C(=O)O[C@@H]2C)c(N)c1=O [DACTINOMYCIN] (I: T[dV]P[Sar][NMeV] / II: T[dV]P[Sar][NMeV]; ester I:1-I:C, II:1-II:C; linker I:N-II:N via Actinocin(9to1)) | Most-Dili-Concern | 8
49 | NCCCNCCSP(=O)(O)O [AMIFOSTINE] | No-Dili-Concern | 0

Source: ChEMBL document CHEMBL4028802, “DILIrank: the largest reference drug list ranked by the risk for developing drug-induced liver injury in humans” (Drug Discov Today, 2016)
